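A five-concentration, 48-hour dose response in 96-well plates underlies each endpoint, interpolated linearly between surrounding concentrations. The concentration for full growth arrest is given as TGI.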
Experiments:
Test in all cases: growth of human tumour cells (NCI), 48 h
[1] = test system: HCC-2998 colon
[2] = test system: MDA-MB-435
[3] = test system: NCI-H23 lung
[4] = test system: OVCAR-3 ovarian
[5] = test system: OVCAR-4 ovarian
[6] = test system: SF-295 CNS
[7] = test system: SF-539 CNS
[8] = test system: SR leukemia
[9] = test system: TK-10 renal
[10] = test system: UACC-62 melanoma

CCOC(=O)Cc1c(C(=O)OCC)[n+](=O)c2cc(Cl)c(Cl)cc2n1[O-] was tested, and the TGI [1] was 5.1 µM, the TGI [2] was 9.03 µM and the TGI [3] was 5.49 µM. The TGI [4] was 5.04 µM, the TGI [5] was 3.51 µM and the TGI [6] was 13.5 µM. The TGI [7] was 5.44 µM, the TGI [8] was 2.11 µM and the TGI [9] was 2.83 µM. It also gave a TGI [10] of 5.45 µM.
For Nc1nc(Sc2ccc([N+](=O)[O-])c3nonc23)c2[nH]cnc2n1, the TGI [1] was 7.93 µM, the TGI [2] was 12 µM and the TGI [3] was 10.9 µM. The TGI [4] was 13.8 µM, the TGI [5] was 15.9 µM and the TGI [6] was 16.1 µM. The TGI [7] was 14.8 µM, the TGI [8] was 1.77 µM and the TGI [9] was 6.4 µM. The TGI [10] was 11.2 µM.
CC1OC(OC2C(O)CC(OC3C(O)CC(OC4CCC5(C)C(CCC6C5CCC5(C)C(C7=CC(=O)OC7)C(O)CC65O)C4)OC3C)OC2C)CC(O)C1O (centres undefined) was tested, and the TGI [1] was 14.6 µM, the TGI [2] was 1.27 µM and the TGI [3] was 0.313 µM. It also gave a TGI [4] of 0.497 µM, a TGI [6] of 0.809 µM and a TGI [7] of 0.217 µM. For the same compound, the TGI [8] was greater than 100 µM, the TGI [9] was 0.787 µM and the TGI [10] was 1.18 µM.
For COc1cc2c(c(OC)c1OC)C(=O)c1c(O)cc(C)c(OC)c1C2=O, the TGI [1] was greater than 100 µM, the TGI [2] was greater than 100 µM and the TGI [3] was greater than 100 µM. The TGI [4] was greater than 100 µM, the TGI [5] was greater than 100 µM and the TGI [6] was greater than 100 µM. For the same compound, the TGI [7] was greater than 100 µM, the TGI [8] was greater than 100 µM and the TGI [9] was greater than 100 µM.
Compound CC(C)(C)OC(=O)Cn1ncn(NC(=O)Cc2ccccc2)c1=S has a TGI [1] greater than 10 µM, a TGI [2] greater than 10 µM and a TGI [3] greater than 10 µM. It also gave a TGI [4] greater than 10 µM, a TGI [5] greater than 10 µM and a TGI [6] greater than 10 µM. It also gave a TGI [7] greater than 10 µM, a TGI [8] greater than 10 µM and a TGI [9] greater than 10 µM. The TGI [10] was greater than 10 µM.
In the case of COC(=O)c1ccccc1C1CN=NC12Cc1ccc(C)cc1C2=O (centres undefined), the TGI [1] is reported as greater than 100 µM, the TGI [2] is reported as greater than 100 µM and the TGI [3] is reported as greater than 100 µM. The TGI [4] was greater than 100 µM, the TGI [5] was greater than 100 µM and the TGI [6] was greater than 100 µM. It also gave a TGI [7] greater than 100 µM, a TGI [8] greater than 100 µM and a TGI [9] greater than 100 µM. The TGI [10] was greater than 100 µM.
For CCOC(=O)C(O)(CC1=NC(C(=O)OC)(C(=O)OC)C(c2cccc(C=O)c2)O1)C(=O)OCC (centres undefined), the TGI [1] was greater than 100 µM, the TGI [2] was greater than 100 µM and the TGI [3] was greater than 100 µM. The TGI [4] was greater than 100 µM, the TGI [5] was greater than 100 µM and the TGI [8] was greater than 100 µM. The TGI [9] was greater than 100 µM and the TGI [10] was greater than 100 µM.
Nc1cccc(-c2cc(=O)c3cc4c(cc3[nH]2)OCO4)c1 was tested, and the TGI [1] was 26.5 µM, the TGI [2] was 0.415 µM and the TGI [3] was 22.6 µM. It also gave a TGI [5] greater than 100 µM, a TGI [6] greater than 26.4 µM and a TGI [7] of 2.79 µM. The TGI [8] was greater than 100 µM, the TGI [9] was greater than 100 µM and the TGI [10] was 11.5 µM.
With CCOC(=O)C1=C(O)CC(=O)N=C1N1CCCC1 the TGI [1] was greater than 100 µM, the TGI [2] was greater than 100 µM and the TGI [3] was greater than 100 µM. For the same compound, the TGI [4] was greater than 100 µM, the TGI [5] was greater than 100 µM and the TGI [6] was greater than 100 µM. It also gave a TGI [7] greater than 100 µM, a TGI [8] greater than 100 µM and a TGI [9] greater than 100 µM. It also gave a TGI [10] greater than 100 µM.
Compound CC1(C)N=C(C(N)=O)c2[nH]cnc2N1 has a TGI [1] greater than 100 µM, a TGI [2] greater than 100 µM and a TGI [3] greater than 100 µM. It also gave a TGI [4] greater than 100 µM, a TGI [5] greater than 100 µM and a TGI [6] greater than 100 µM. The TGI [7] was greater than 100 µM, the TGI [8] was greater than 100 µM and the TGI [9] was greater than 100 µM. For the same compound, the TGI [10] was greater than 100 µM.
For O=C(/C=C/c1ccc(-c2ccccc2)cc1)NCc1ccc(C(=O)NCCc2ccccc2)cc1, the TGI [1] was greater than 100 µM, the TGI [2] was greater than 100 µM and the TGI [3] was greater than 100 µM. It also gave a TGI [4] greater than 100 µM, a TGI [5] greater than 100 µM and a TGI [6] greater than 100 µM. It also gave a TGI [7] of 38.1 µM, a TGI [8] greater than 100 µM and a TGI [9] greater than 100 µM. The TGI [10] was greater than 100 µM.
With COC(=O)CN1CCN(c2cccc3c2CCCC3)CC1 the TGI [1] was 85.3 µM, the TGI [2] was greater than 100 µM and the TGI [3] was 48.7 µM. The TGI [4] was 72.4 µM, the TGI [5] was greater than 100 µM and the TGI [6] was greater than 100 µM. It also gave a TGI [7] greater than 100 µM, a TGI [8] greater than 100 µM and a TGI [9] greater than 100 µM. The TGI [10] was greater than 100 µM.
For Clc1ccc(-c2cn3c(nc4ccccc43)c(-c3ccccc3)n2)cc1, the TGI [1] was greater than 100 µM, the TGI [2] was greater than 100 µM and the TGI [3] was 64.2 µM. The TGI [4] was greater than 82.4 µM, the TGI [5] was 25.2 µM and the TGI [6] was 28.3 µM. It also gave a TGI [7] greater than 69 µM, a TGI [8] greater than 100 µM and a TGI [9] of 62.2 µM. It also gave a TGI [10] of 26.7 µM.
O/N=C\c1c2c(cc3c1CCC3)CCC2 showed a TGI [1] greater than 100 µM, a TGI [2] greater than 100 µM and a TGI [3] greater than 100 µM. The TGI [4] was greater than 100 µM, the TGI [5] was greater than 100 µM and the TGI [6] was greater than 100 µM. For the same compound, the TGI [7] was greater than 100 µM, the TGI [8] was greater than 100 µM and the TGI [9] was greater than 100 µM. It also gave a TGI [10] greater than 100 µM.
For Nc1nc(N)c2nc(CN(C=O)c3ccc(C(=O)O)cc3)cnc2n1, the TGI [1] was greater than 100 µM, the TGI [2] was greater than 100 µM and the TGI [3] was greater than 100 µM. The TGI [4] was greater than 100 µM, the TGI [5] was greater than 100 µM and the TGI [6] was greater than 100 µM. It also gave a TGI [7] greater than 100 µM, a TGI [8] greater than 100 µM and a TGI [9] greater than 100 µM. It also gave a TGI [10] greater than 100 µM.
Work on CC1CC(=O)N(N(C)C)C2(C#N)C(=O)N=C(N)C12C#N (centres undefined) yielded a TGI [1] greater than 100 µM, a TGI [2] greater than 100 µM and a TGI [3] greater than 100 µM. For the same compound, the TGI [5] was greater than 100 µM, the TGI [6] was greater than 100 µM and the TGI [7] was greater than 100 µM. It also gave a TGI [8] greater than 100 µM, a TGI [9] greater than 100 µM and a TGI [10] greater than 100 µM.
For ClC1=NSSC1(Cl)Cl, the TGI [1] was greater than 100 µM, the TGI [2] was greater than 100 µM and the TGI [3] was greater than 100 µM. It also gave a TGI [4] of 64.5 µM, a TGI [5] greater than 100 µM and a TGI [6] greater than 100 µM. For the same compound, the TGI [7] was greater than 100 µM, the TGI [8] was 60.2 µM and the TGI [10] was greater than 100 µM.
CC(=O)OC1CCn2c1nc1cc([N+](=O)[O-])c(C)cc12 (centres undefined) was tested, and the TGI [1] was greater than 100 µM, the TGI [2] was greater than 100 µM and the TGI [3] was greater than 100 µM. The TGI [4] was greater than 100 µM, the TGI [5] was greater than 100 µM and the TGI [6] was greater than 100 µM. The TGI [7] was greater than 100 µM, the TGI [8] was greater than 100 µM and the TGI [10] was greater than 100 µM.
Cc1sc(/N=C/C2=C(O)CC(C)(C)CC2=O)nc1-c1ccccc1 showed a TGI [1] greater than 100 µM, a TGI [2] greater than 100 µM and a TGI [3] greater than 100 µM. For the same compound, the TGI [4] was greater than 100 µM, the TGI [5] was greater than 100 µM and the TGI [6] was greater than 100 µM. The TGI [7] was greater than 100 µM, the TGI [8] was greater than 100 µM and the TGI [9] was greater than 100 µM. It also gave a TGI [10] greater than 100 µM.
In the case of NC(Cc1ccccc1)C(=O)OCN1C(=O)C2C3C=CC(C2C1=O)C1C(=O)N(COC(=O)C(N)Cc2ccccc2)C(=O)C31 (centres undefined), the TGI [1] is reported as greater than 100 µM, the TGI [2] is reported as greater than 100 µM and the TGI [3] is reported as greater than 100 µM. The TGI [4] was greater than 100 µM, the TGI [6] was greater than 100 µM and the TGI [7] was greater than 100 µM. It also gave a TGI [8] of 53.4 µM, a TGI [9] greater than 100 µM and a TGI [10] greater than 100 µM.
NC(=S)NNCC(=O)CC(O)(C(F)(F)F)C(F)(F)Cl (centres undefined) gave a TGI [2] greater than 100 µM, a TGI [3] greater than 100 µM and a TGI [4] greater than 100 µM. The TGI [5] was greater than 100 µM, the TGI [6] was greater than 100 µM and the TGI [7] was greater than 100 µM. It also gave a TGI [8] greater than 100 µM, a TGI [9] greater than 100 µM and a TGI [10] greater than 100 µM.
With CSc1c(C(C)=O)c(O)n(-c2ccc(C)cc2)c(=O)c1C#N the TGI [1] was greater than 100 µM, the TGI [2] was greater than 100 µM and the TGI [3] was greater than 100 µM. It also gave a TGI [4] greater than 100 µM, a TGI [5] greater than 100 µM and a TGI [7] greater than 100 µM. It also gave a TGI [8] greater than 100 µM, a TGI [9] greater than 100 µM and a TGI [10] greater than 100 µM.
